Assay results from US20250136583A1, “NOVEL SALT FORMS OF ISOCHROMAN-IMIDAZOLE STRUCTURED ALPHA-2A ADRENOCEPTOR AGONIST” (ORION CORPORATION, priority 2022, published 2025).
Counter-ions that a name gives are not always drawn.

Experiments:
[1] = Physical stability of the salts (storage at elevated temperature and relative humidity, re-analysis by XRPD); assay type: physicochemical; details: for Form after stability / Physical stability: solids exposed for 2 or 3 weeks at 40° C. and 70-80% relative humidity; for Form after stability: XRPD; for Physical stability: re-analyzed by XRPD
Protocol: XRPD measurements were performed with the X-ray powder diffractometer Bruker D8 Advance at room temperature, using a copper filled X-ray tube (40 kV×40 mA) as the X-ray source, CuKα (λ=1.5418 Å), a 0.6 mm divergence slit, 2.5° Soller slits on both the primary and secondary beams and the 1-dimensional LynxEye detector (with aperture angle of 2.91593°). Data collection was done in the range of 3.8-33° 2θ with 0.02° increments, at a scan speed of 0.3°/s.
A stability test was carried out for all crystalline salt forms resulted from the salt screen by exposing the solids for 2 or 3 weeks at 40° C. and 70-80% relative humidity. After exposure, the solids were re-analyzed by XRPD, followed by physical stability assessment.

[2] = Chemical stability of the salts (stress at 60° C. and 75% relative humidity, purity by UHPLC); assay type: physicochemical; details: for Purity (%) of 1 day stress samples / Difference between reference and 1 day stressed sample: 1 day at 60° C. and 75% relative humidity; for Purity (%) of 1 day stress samples / Purity (%) of 14 day stress samples / Purity (%) of reference: UHPLC; for Difference between reference and 1 day stressed sample / Difference between reference and 14 day stressed sample: purity difference, in %; for Purity (%) of 14 day stress samples / Difference between reference and 14 day stressed sample: 14 days at 60° C. and 75% relative humidity; for Chemical stability (in words): summary statement; for Purity (%) of reference: unstressed sample
Protocol: The purity analyses were performed using Agilent UHPLC equipment with PDA/DAD detector at 210 nm wavelength and reverse phase liquid chromatography column Acquity UPLC HSS T3, 100×3.0 mm, 1.8 μm (Waters). The chromatography was performed with gradient run using acetonitrile and phosphate buffer (pH 3.0) as eluents.
The chemical stability of various salts of compound (I) was determined by stressing the salts for 1 and 14 days at 60° C. and 75% relative humidity. The unstressed sample was used as an reference. The purity of the samples were analyzed using UHPLC, and the purity difference between the stressed and reference was calculated.

[3] = listed as Napthalene-1,5-disulfonic acid salt
[4] = listed as 1-Hydroxy-2-naphtoic acid salt

SMILES	Form after stability [1]	Physical stability [1]	Purity (%) of 1 day stress samples [2]	Difference between reference and 1 day stressed sample [2]	Purity (%) of 14 day stress samples [2]	Difference between reference and 14 day stressed sample [2]	Chemical stability (in words) [2]	Purity (%) of reference [2]	also measured
COc1cccc2c1CCOC2C1=NCCN1 (stereo not shown) [Oxalic acid salt Form 1, 2-(5-methoxyisochroman-1-yl)-4,5-dihydro-1H-imidazole]	Form 1	Stable	97.9%	−0.2	97.9%	−0.2	good chemical stability	97.7%	Physical stability ([1]; listed as oxalic acid): remained stable
COc1cccc2c1CCOC2C1=NCCN1 (stereo not shown) [Glycolic acid salt Form 1, 2-(5-methoxyisochroman-1-yl)-4,5-dihydro-1H-imidazole]	Form 1	Stable	99.3%	0.5	17.6%	82.2	–	99.8%	Physical stability ([1]; listed as glycolic acid): remained stable
COc1cccc2c1CCOC2C1=NCCN1 (stereo not shown) [Fumaric acid salt Form 2, 2-(5-methoxyisochroman-1-yl)-4,5-dihydro-1H-imidazole]	Form 2	Stable	97.6%	−0.3	98.0%	−0.8	–	97.2%	Physical stability ([1]; listed as fumaric acid (form 2)): remained stable
COc1cccc2c1CCOC2C1=NCCN1 (stereo not shown) [Ethane-1,2-disulfonic acid salt Form 1, 2-(5-methoxyisochroman-1-yl)-4,5-dihydro-1H-imidazole]	Form 1	Stable	99.8%	0.0	99.8%	0.0	good chemical stability	99.8%	Physical stability ([1]; listed as ethane-1,2-disulfonic acid): remained stable
COc1cccc2c1CCOC2C1=NCCN1 [L-tartaric acid salt Form 2, 2-(5-methoxyisochroman-1-yl)-4,5-dihydro-1H-imidazole]	Form 1	Unstable	97.5%	1.0	88.3%	10.3	–	98.6%	Crystalline form conversion on storage ([1]; 40° C., 75% RH for 3 weeks): turned into form 1; Form after stability ([1]; listed as L-tartaric acid (form 2)): completely
COc1cccc2c1CCOC2C1=NCCN1 (stereo not shown) [Adipic acid salt Form 1, 2-(5-methoxyisochroman-1-yl)-4,5-dihydro-1H-imidazole]	Form 1	Stable	94.7%	4.4	2.7%	96.5	–	99.1%	Physical stability ([1]; listed as adipic acid): remained stable
COc1cccc2c1CCOC2C1=NCCN1 (stereo not shown) [Naphthalene-1,5-disulfonic acid salt Form 1] [2-(5-methoxyisochroman-1-yl)-4,5-dihydro-1H-imidazole]	Form 1	Stable	–	–	–	–	good chemical stability	–	Physical stability ([1]; listed as naphthalene-1,5-disulfonic acid): remained stable; Purity (%) of 1 day stress samples [2, 3]: 96.1%; Difference between reference and 1 day stressed sample [2, 3]: 0.2; Purity (%) of 14 day stress samples [2, 3]: 95.7%; Difference between reference and 14 day stressed sample [2, 3]: 0.6; Purity (%) of reference [2, 3]: 96.3%
COc1cccc2c1CCOC2C1=NCCN1 (stereo not shown) [1-Hydroxy-2-napthoic acid salt Form 1, 2-(5-methoxyisochroman-1-yl)-4,5-dihydro-1H-imidazole]	Form 1	Stable	–	–	–	–	–	–	Physical stability ([1]; listed as 1-hydroxy-2-napthoic acid): remained stable; Purity (%) of 1 day stress samples [2, 4]: 95.4%; Difference between reference and 1 day stressed sample [2, 4]: 3.5; Purity (%) of 14 day stress samples [2, 4]: 0.6%; Difference between reference and 14 day stressed sample [2, 4]: 98.3; Purity (%) of reference [2, 4]: 98.9%
COc1cccc2c1CCOC2C1=NCCN1 (stereo not shown) [Malonic acid salt Form 1, 2-(5-methoxyisochroman-1-yl)-4,5-dihydro-1H-imidazole]	Form 1	Stable	96.6%	1.5	72.7%	25.5	–	98.2%	Physical stability ([1]; listed as malonic acid): remained stable
COc1cccc2c1CCOC2C1=NCCN1 (stereo not shown) [Hydrobromic acid salt Form 1, 2-(5-methoxyisochroman-1-yl)-4,5-dihydro-1H-imidazole]	Form 1	Stable	98.1%	0.2	98.2%	0.1	good chemical stability	98.3%	Physical stability ([1]; listed as hydrobromic acid): remained stable
COc1cccc2c1CCOC2C1=NCCN1 (stereo not shown) [Mucic acid salt Form 1, 2-(5-methoxyisochroman-1-yl)-4,5-dihydro-1H-imidazole]	Form 1	Stable	97.7%	1.6	35.6%	63.6	–	99.2%	Physical stability ([1]; listed as mucic acid): remained stable
COc1cccc2c1CCOC2C1=NCCN1 (stereo not shown) [Hydrochloric acid salt Form 1, 2-(5-methoxyisochroman-1-yl)-4,5-dihydro-1H-imidazole]	Form 1	Stable	89.8%	8.7	69.0%	29.5	–	98.6%	Physical stability ([1]; listed as hydrochloric acid): remained stable
COc1cccc2c1CCOC2C1=NCCN1 (stereo not shown) [Maleic acid salt Form 1, 2-(5-methoxyisochroman-1-yl)-4,5-dihydro-1H-imidazole]	Form 1	Stable	64.0%	35.7	33.3%	66.4	–	99.6%	Physical stability ([1]; listed as maleic acid): remained stable
